Laboratory results from US6579881B2 (Eisai Co., Ltd., priority 1997, dated 2003).

Tests used:
[1] = biological target: T1, serotonin 1A receptor (Rattus norvegicus, UniProt P19327); assay: Binding test on [3H] 8-hydroxy-dipropylaminotetralin (serotonin 1A receptor); settings: [3H] 8-OH-DPAT 0.5 nM, receptor fraction of rat hippocampus; read-out: 5HT1a
T1 construct: To the receptor fraction of the hippocampus were added a test compound and 0.5 nM of [^3H]; 8-hydroxy-dipropylaminotetralin; from tissue; host or cells: SD rat hippocampus, membrane (receptor) fraction
T1 sequence (P19327 1-422): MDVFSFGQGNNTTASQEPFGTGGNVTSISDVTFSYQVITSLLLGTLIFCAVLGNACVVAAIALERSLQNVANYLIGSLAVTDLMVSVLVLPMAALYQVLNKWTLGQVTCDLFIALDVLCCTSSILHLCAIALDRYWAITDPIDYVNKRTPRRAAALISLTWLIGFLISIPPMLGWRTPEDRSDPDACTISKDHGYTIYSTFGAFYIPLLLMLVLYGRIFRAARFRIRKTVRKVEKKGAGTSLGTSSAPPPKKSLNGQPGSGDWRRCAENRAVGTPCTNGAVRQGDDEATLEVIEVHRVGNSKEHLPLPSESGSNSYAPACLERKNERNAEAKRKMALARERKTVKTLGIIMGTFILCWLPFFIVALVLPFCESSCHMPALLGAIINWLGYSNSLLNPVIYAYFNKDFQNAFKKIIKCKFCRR
Experimental: 3) [^3H] 8-Hydroxy-dipropylaminotetralin (8-OH-DPAT).
Use was made of SD rats aged 6 to 8 weeks.
The rats were sacrificed by dcapitation to extirpate the cerebra.
Each mixture was homogenized by using a Teflon glass homogenizer and centrifuged at 1,000×g for 10 min. The supernatant thus obtained was further centrifuged at 20,000×g for 20 min. The obtained precipitate was re-suspended in 50 times (based on the intial wet weight; in the case of the hippocampus) or 10 times (in the case of the cortex) as much a 50 mM Tris hydrochloride (pH 7.4) and incubated at room temperature for 30 min. After centrifuging at 20,000×g for 20 min, the obtained precipitate was further suspended and centrifuged twice each in the same manner. The precipitate thus obtained was suspended in 100 times (based on the initial wet weight; in the case of the hippocampus) or 20 times (in the case of the cortex) as much a 50 mM Tris hydrochloride solution (pH 7.4) to thereby give a receptor fraction. This receptor fraction was stored at −80° C. until using.
(Binding Test on [^3H] 8-hydroxy-dipropylaminotetralin)
To the receptor fraction of the hippocampus were added a test compound and 0.5 nM of [^3H] 8-hydroxy-dipropylaminotetralin and the resultant mixture was incubated at room temperature for 30 min. Next, it was filtered through a glass filter with the use of a cell harvester. After washing the glass filter with 50 mM Tris hydrochloride (pH 7.4), the radioactivity of the receptor was measured with a liquid scintillation counter. The binding detected in the presence of 10 μM of serotonin binoxalate was referred to as the nonspecific binding.
IC50 was calculated by the probit method, while Ki was determined in accordance with the following formula:
wherein c represents the concentration of the radioisotope-labeled compound, and Kd represents the dissociation constant of the radioisotope-labeled compound with respect to the receptor determined by Scatchard's analysis.

[2] = biological target: serotonin 2 receptor (Rattus norvegicus, UniProt P14842); assay: Binding test on [3H] ketanserin (serotonin 2 receptor); settings: [3H] ketanserin 0.3 nM, receptor fraction of rat cerebral cortex; read-out: 5HT2
serotonin 2 receptor, sequence (P14842 whole entry): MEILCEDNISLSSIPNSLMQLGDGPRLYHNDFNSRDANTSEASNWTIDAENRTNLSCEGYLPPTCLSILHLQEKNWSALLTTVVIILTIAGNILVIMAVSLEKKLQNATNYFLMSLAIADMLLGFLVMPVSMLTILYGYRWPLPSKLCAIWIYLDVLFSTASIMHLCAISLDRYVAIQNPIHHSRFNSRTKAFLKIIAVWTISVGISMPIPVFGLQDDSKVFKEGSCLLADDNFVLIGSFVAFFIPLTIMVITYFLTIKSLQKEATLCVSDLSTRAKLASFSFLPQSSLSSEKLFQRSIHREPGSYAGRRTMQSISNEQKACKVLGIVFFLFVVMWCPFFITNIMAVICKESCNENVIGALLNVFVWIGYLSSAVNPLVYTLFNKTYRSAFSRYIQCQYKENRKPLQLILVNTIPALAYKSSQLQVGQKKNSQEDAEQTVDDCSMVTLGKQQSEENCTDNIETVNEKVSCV

Row | Compound | Ki [1] | Ki [2]
1 | COc1ncccc1Cc1ccc2c(c1)N(C1CCN(CCc3ccc(F)cc3)CC1)CC2 [Example 185, 1-[1-(4-fluorophenethyl)piperidin-4-yl]-6-[1-(2-methoxypyridin-3-yl)methyl]indoline] | 14.6 nM | 4.73 nM
2 | O=c1ccc(C(O)c2ccc3c(c2)N(C2CCN(CCc4ccc(F)cc4)CC2)CC3)c[nH]1 (stereo not drawn) [Example 190, 1-[1-(4-fluorophenethyl)piperidin-4-yl]-6-[1-hydroxy-1-(2-pyridon-5-yl)methyl]indoline] | 0.49 nM | 0.33 nM
3 | CN(C)c1ccc(C(O)c2ccc3c(c2)N(C2CCN(CCc4ccc(F)cc4)CC2)CC3)cn1 (stereo not drawn) [Example 191, 1-[1-(4-fluorophenethyl)piperidin-4-yl]-6-[1-hydroxy-1-(2-dimethylaminopyridin-5-yl)methyl]indoline] | 29.1 nM | 0.32 nM
4 | OC(c1ccc(Cl)nc1)c1ccc2c(c1)N(C1CCN(CCc3ccc(F)cc3)CC1)CC2 (stereo not drawn) [Example 192, 1-[1-(4-fluorophenethyl)piperidin-4-yl]-6-[1-hydroxy-1-(2-chloropyridin-5-yl)methyl]indoline] | 1.02 nM | 2.9 nM
5 | OC(c1ccc2c(c1)N(C1CCN(CCc3ccc(F)cc3)CC1)CC2)c1nccs1 (stereo not drawn) [Example 193, 1-[1-(4-fluorophenethyl)piperidin-4-yl]-6-[1-(2-thiazolyl)-1-hydroxymethyl]indoline] | 6.92 nM | 2.88 nM
6 | O=C(c1ccc2c(c1)N(C1CCN(CCc3ccc(F)cc3)CC1)CC2)c1nccs1 [Example 194, 1-[1-(4-fluorophenethyl)piperidin-4-yl]-6-(2-thiazolylcarbonyl)indoline] | 4.59 nM | > 200 nM
7 | OC(c1ccc2c(c1)N(C1CCN(CCc3ccc(F)cc3)CC1)CC2)c1cscn1 (stereo not drawn) [Example 195, 1-[1-(4-fluorophenethyl)piperidin-4-yl]-6-[1-(4-thiazolyl)-1-hydroxymethyl]indoline] | 5.73 nM | 1.15 nM
8 | OC(c1ccc2c(c1)N(C1CCN(CCc3ccc(F)cc3)CC1)CC2)c1cncs1 (stereo not drawn) [Example 196, 1-[1-(4-fluorophenethyl)piperidin-4-yl]-6-[1-(5-thiazolyl)-1-hydroxymethyl]indoline] | 1.67 nM | 1.17 nM
9 | OC(c1cncnc1)c1ccc2c(c1)N(C1CCN(CCc3ccc(F)cc3)CC1)CC2 (stereo not drawn) [Example 198, 1-[1-(4-fluorophenethyl)piperidin-4-yl]-6-[1-hydroxy-1-(pyrimidin-5-yl)methyl]indoline] | 13.7 nM | 2.21 nM
10 | OC(c1ccc2c(c1)N(C1CCN(CCc3ccc(F)cc3)CC1)CC2)c1ccc[nH]1 (stereo not drawn) [Example 199, 1-[1-(4-fluorophenethyl)piperidin-4-yl]-6-[1-hydroxy-1-(2-pyrrolyl)methyl]indoline] | 1.98 nM | 1.19 nM
11 | CN(C)Cc1ccc2c(c1)N(C1CCN(CCc3ccc(F)cc3)CC1)CC2 [Example 200, 1-[1-(4-fluorophenethyl)piperidin-4-yl]-6-N,N-dimethylaminomethylindoline] | 4.84 nM | 234 nM
12 | Fc1ccc(CCN2CCC(N3CCc4ccc(-c5ccc(F)cc5)cc43)CC2)cc1 [Example 201, 1-[1-(4-fluorophenethyl)piperidin-4-yl]-6-(4-fluorophenyl)indoline] | 7.05 nM | > 200 nM
13 | O=C1CCCN1Cc1ccc2c(c1)N(C1CCN(CCc3ccc(F)cc3)CC1)CC2 [Example 202, 1-[1-(4-fluorophenethyl)piperidin-4-yl]-6-(2-pyrrolidon-1-yl)methylindoline] | 2.57 nM | 5.13 nM
14 | O=C1CCCCN1Cc1ccc2c(c1)N(C1CCN(CCc3ccc(F)cc3)CC1)CC2 [Example 203, 1-[1-(4-fluorophenethyl)piperidin-4-yl]-6-(2-piperidon-1-yl)methylindole] | 0.55 nM | 4.61 nM
15 | O=C1CCCC(=O)N1Cc1ccc2c(c1)N(C1CCN(CCc3ccc(F)cc3)CC1)CC2 [Example 205, 1-[1-(4-fluorophenethyl)piperidin-4-yl]-6-(glutarimido-1-yl)methylindoline] | 2.76 nM | 0.12 nM
16 | O=C1CNC(=O)N1Cc1ccc2c(c1)N(C1CCN(CCc3ccc(F)cc3)CC1)CC2 [Example 207, 1-[1-(4-fluorophenethyl)piperidin-4-yl]-6-(2,4-imidazolidinedion-3-yl)methylindoline] | 0.81 nM | 2.69 nM
17 | O=C1OCCN1Cc1ccc2c(c1)N(C1CCN(CCc3ccc(F)cc3)CC1)CC2 [Example 208, 1-[1-(4-fluorophenethyl)piperidin-4-yl]-6-(2-oxazolidon-3-yl)methylindoline] | 2.33 nM | 1.05 nM
18 | O=C1CSC(=O)N1Cc1ccc2c(c1)N(C1CCN(CCc3ccc(F)cc3)CC1)CC2 [Example 209, 1-[1-(4-fluorophenethyl)piperidin-4-yl]-6-(2,4-thiazolidinedion-3-yl)methylindoline] | 6.98 nM | 4.72 nM

Row | Compound | Ki [1] | Ki [2]
19 | Fc1ccc(CCN2CCC(N3CCc4ccc(Cn5cccc5)cc43)CC2)cc1 [Example 210, 1-[1-(4-fluorophenethyl)piperidin-4-yl]-6-(pyrrol-1-yl)methylindoline] | 2.5 nM | 4.93 nM
20 | Fc1ccc(CCN2CCC(N3CCc4ccc(Cn5ccnc5)cc43)CC2)cc1 [Example 211, 1-[1-(4-fluorophenethyl)piperidin-4-yl]-6-(imidazol-1-yl)methylindoline] | 0.53 nM | 1.21 nM
21 | Fc1ccc(CCN2CCC(N3CCc4ccc(Cn5cncn5)cc43)CC2)cc1 [Example 213, 1-[1-(4-fluorophenethyl)piperidin-4-yl]-6-(1,2,4-triazol-2-yl)methylindoline] | 1.03 nM | 0.18 nM
22 | Fc1ccc(CCN2CCC(N3CCc4ccc(Cc5nccs5)cc43)CC2)cc1 [Example 214, 1-[1-(4-fluorophenethyl)-piperidin-4-yl]-6-(2-thiazolyl)methylindoline] | 3.5 nM | 0.9 nM
23 | COc1ccc(CC2CN(C3CCN(CCc4ccc(F)cc4)CC3)c3ccccc32)cc1 (stereo not drawn) [Example 215, 1-[1-(4-fluorophenethyl)piperidin-4-yl]-3-(4-methoxybenzyl)indoline] | 126 nM | 1 nM
24 | CS(=O)(=O)Nc1cc2c(cc1Cl)CCN2C1CCN(CCc2ccc(F)cc2)CC1 [Example 218, 1-[1-(4-fluorophenethyl)piperidin-4-yl]-5-chloro-6-methanesulfonylaminoindoline] | 4.5 nM | 11.7 nM
25 | COc1cc2c(cc1Cl)CCN2C1CCN(CCc2ccc(F)cc2)CC1 [Example 219, 1-[1-(4-fluorophenethyl)piperidin-4-yl]-5-chloro-6-methoxyindoline] | 19.6 nM | 30.9 nM
26 | CS(=O)(=O)Nc1ccc2c(c1)N(C1CCN(CCc3ccc(F)cc3F)CC1)CC2 [Example 221, 1-[1-(2,4-difluorophenethyl)piperidin-4-yl]-6-methanesulfonylaminoindoline] | 1.9 nM | 2.4 nM
27 | CC(=O)Nc1ccc2c(c1)N(C1CCN(CCc3ccc(F)cc3F)CC1)CC2 [Example 222, 1-[1-(2,4-difluorophenethyl)piperidin-4-yl]-6-acetamidoindoline] | 0.04 nM | 18.1 nM
28 | CC(=O)NCc1ccc2c(c1)N(C1CCN(CCc3ccc(F)cc3F)CC1)CC2 [Example 224, 1-[1-(2,4-difluorophenethyl)piperidin-4-yl]-6-acetamidomethylindoline] | 3.09 nM | 5.11 nM
29 | NC(=O)Cc1ccc2c(c1)N(C1CCN(CCc3ccc(F)cc3F)CC1)CC2 [Example 225, 1-[1-(2,4-difluorophenethyl)piperidin-4-yl]-6-carbamoylmethylindoline] | 5.74 nM | 7.61 nM
30 | COc1ccc(CCN2CCC(N3CCc4ccc(OC)cc43)CC2)cc1 [Example 228, 1-[1-(4-methoxyphenethyl)piperidin-4-yl]-6-methoxyindoline] | 0.34 nM | > 200 nM
31 | COc1ccc(CCN2CCC(N3CCc4ccc(F)cc43)CC2)cc1 [Example 229, 1-[1-(4-methoxyphenethyl)piperidin-4-yl]-6-fluoroindoline] | 2.5 nM | > 200 nM
32 | COc1ccc2c(c1)N(C1CCN(CCc3ccc(S(N)(=O)=O)cc3)CC1)CC2 [Example 230, 1-[1-(4-sulfamoylphenethyl)piperidin-4-yl]-6-methoxyindoline] | 13.3 nM | > 200 nM
33 | CC(=O)NCc1ccc2c(c1)N(C1CCN(CCCOc3ccc(F)cc3)CC1)CC2 [Example 232, 1-[1-(4-fluorophenoxypropyl)piperidin-4-yl]-6-acetamidomethylindoline] | 37.6 nM | 48.2 nM
34 | COc1ccc2c(c1)N(C1CCN(CCc3ccc4ncsc4c3)CC1)CC2 [Example 233, 1-{1-[2-(6-benzothiazolyl)ethyl]-piperidin-4-yl}-6-methoxyindoline] | 0.6 nM | > 200 nM
35 | Fc1ccc(CCN2CCC(N3CCc4cc5scnc5cc43)CC2)cc1 [Example 234, 1-[1-(4-fluorophenethyl)piperidin-4-yl]thiazolo[5,4-f]indoline] | 1.1 nM | 3.3 nM
36 | CN1CCC(N2CCc3ccc(NS(=O)(=O)c4ccc(F)cc4)cc32)CC1 [Example 237, 1-(1-methylpiperidin-4-yl)-6-(4-fluorobenzenesulfonylamino)indoline] | 30.4 nM | > 200 nM
